Reference: patent publication US9521846B2, “Template-fixed peptidomimetics with antimicrobial activity” (priority 2006, dated 2016)
In brackets after ≈: the same amount, converted by molar mass. Non-standard residues stand in square brackets, D forms with d. Residues, ends and D or L forms follow the SMILES beside them. Cit = NC(=O)NCCC[C@H](N)C(=O)O; Dab = NCC[C@H](N)C(=O)O

Experiments:
[1] = tested on: P. aeruginosa
[2] = tested on: HELA cells (Acc57); assay: Cytotoxicity assay, MTT reduction (LC 50, GI 50); type: cell-based
Experimental: The cytotoxicity of the peptides to HELA cells (Acc57) and COS-7 cells (CRL-1651) was determined using the MIT reduction assay [see ref. 2 and 3, below]. Briefly the method was as follows: HELA cells and COS-7 cells were seeded at 7.0×10^3 and, respectively, 4.5×10^3 cells per well and grown in 96-well […] plates for 24 hours at 37° C. at 5% CO2. At this point, time zero (Tz) was determined by MTT reduction (see below). The supernatant of the remaining wells was discarded, and fresh medium and the peptides in serial dilutions of 12.5, 25 and 50 μM were dispensed into the wells. Each peptide concentration was assayed in triplicate. Incubation of the cells was continued for 48 hours at 37° C. at 5% CO2. Wells were then washed once with phosphate buffered saline (PBS) and subsequently 100 μl MIT reagent (0.5 mg/ml in medium RPMI1640 and, respectively, DMEM) were added to the wells. This was incubated at 37° C. for 2 hours and subsequently the medium was aspirated and 100 μl isopropanol were added to each well. The absorbance at 595 nm of the solubilized product was measured (OD595peptide). For each concentration averages were calculated from triplicates. The percentage of growth was calculated as follows: (OD595peptide-OD595Tz-OD595Empty well)/(OD595Tz-OD595Empty well)×100% and was plotted for each peptide concentration.
The LC 50 values (Lethal Concentration, defined as the concentration that kills 50% of the cells) were determined for each peptide by using the trend line function of EXCEL (Microsoft Office 2000) for the concentrations (50, 25, 12.5 and 0 μM), the corresponding growth percentages and the value −50, (=TREND(C50:C0,%50:%0,−50)). The GI 50 (Growth Inhibition) concentrations were calculated for each peptide by using a trend line function for the concentrations (50, 25, 12.5 and 0 […]), the corresponding percentages and the value 50, (=TREND (C50:C0,%50:%0,50).

[3] = tested on: Pseudomonas aeruginosa P1021903; type: cell-based; conditions: P1021903
Experimental: (§1) The selective antimicrobial activities of the peptides were determined in 96-well plates (Nunclon polystyrene) by the standard NCCLS broth microdilution method (see ref 1, below) with slight modifications. Innocula of the microorganisms were diluted into Mueller-Hinton (MH) broth+0.02% BSA and compared with a 0.5 Mcfarland standard to give appr. 10^6 colony forming units (CFU)/ml. Aliquots (50 μl) of inoculate were added to 50 μl of MH broth+0.02% BSA containing the peptide in serial two-fold dilutions. The following microorganisms were used to determine antibiotic selectivity of the peptides: Escherichia coli (ATCC 25922), Pseudomonas aeruginosa (P. aeruginosa ATCC 27853, P8191900, P1021903, P1021913, IMP 1 Livermore 3140).

[4] = tested on: Pseudomonas aeruginosa P1021913; type: cell-based; conditions: P1021913
Experimental: as §1

[5] = tested on: Pseudomonas aeruginosa IMP 1 Livermore 3140; type: cell-based; conditions: IMP 1 Livermore 3140
Experimental: as §1

[6] = tested on: Pseudomonas aeruginosa P8191900; type: cell-based; conditions: P8191900
Experimental: as §1

[7] = tested on: P. aeruginosa ATCC 27853; type: cell-based, Pseudomonas aeruginosa; conditions: ATCC 27853
Experimental: as §1

[8] = tested on: human red blood cells (hRBC); assay: Hemolysis; type: cell-based; conditions: 100
Experimental: Hemolysis of red blood cells is often employed for assessment of toxicity of related compounds such as protegrin or tachyplesin. Values are given as %-lysis of red blood cells observed at a concentration of 100 μg/ml. Typical values determined for cationic peptides such as protegrin and tachyplesin range between 30-40% with average MIC-values of 1-5 μg/ml over a wide range of pathogens.
The peptides were tested for their hemolytic activity against human red blood cells (hRBC). Fresh hRBC were washed three times with phosphate buffered saline (PBS) by centrifugation for 10 min at 2000×g. Peptides at a concentration of 100 μM were incubated with 20% v/v hRBC for 1 hour at 37° C. The final erythrocyte concentration was approximately 0.9×10^9 cells per ml. A value of 0% and, respectively, 100% cell lysis was determined by incubation of the hRBC in the presence of PBS alone and, respectively, 0.1% Triton X-100 in H2O. The samples were centrifuged, the supernatant was 20-fold diluted in PBS buffer and the optical density (OD) of the sample at […] was measured. The 100% lysis value (OD540H20) gave an OD540 of approximately 1.3-1.8. Percent hemolysis was calculated as follows: (OD540peptide/OD540H20)×100%.

Row | SMILES | Average MIC [1] [µg/mL] | Cytotoxicity GI50 Hela cells [2] [µM] | MIC P. aeruginosa P1021903 [3] [µg/mL] | MIC P. aeruginosa P1021913 [4] [µg/mL] | MIC P. aeruginosa IMP1 Livermore 3140 [5] [µg/mL] | MIC P. aeruginosa P8191900 [6] [µg/mL] | MIC P. aeruginosa ATCC 27853 [7] [µg/mL] | Hemolysis at 100 μg/ml [8] [%]
1 | CC[C@H](C)[C@@H]1NC(=O)[C@H](Cc2c[nH]c3ccccc23)NC(=O)[C@H]([C@@H](C)O)NC(=O)[C@@H]2CCCN2C(=O)[C@H]2CCCN2C(=O)[C@H](CCN)NC(=O)[C@@H]2CCCN2C(=O)[C@H](CCN)NC(=O)[C@H](CCN)NC(=O)[C@H](Cc2c[nH]c3ccccc23)NC(=O)[C@H](CCN)NC(=O)[C@H](CCN)NC(=O)[C@H](CCCCN)NC(=O)[C@H](CCN)NC1=O [Example 17] (cyclo(TWI[Dab]K[Dab][Dab]W[Dab][Dab]P[Dab][dP]P)) | >1 | 29 | 2.00 (≈ 1.24 µM) | 1.25 (≈ 0.778 µM) | >2 | 1.50 (≈ 0.933 µM) | 0.75 (≈ 0.467 µM) | 0.5
2 | CC[C@H](C)[C@@H]1NC(=O)[C@H](Cc2c[nH]c3ccccc23)NC(=O)[C@H](CCCNC(N)=O)NC(=O)[C@@H]2CCCN2C(=O)[C@H]2CCCN2C(=O)[C@H](CCN)NC(=O)[C@H](C)NC(=O)[C@H](CCN)NC(=O)[C@H](CCN)NC(=O)[C@H](Cc2c[nH]c3ccccc23)NC(=O)[C@H](CCN)NC(=O)[C@H](CCN)NC(=O)[C@H](CCCCN)NC(=O)[C@H](CCN)NC1=O [Example 18] (cyclo([Cit]WI[Dab]K[Dab][Dab]W[Dab][Dab]A[Dab][dP]P)) | 0.28 | 50 | 0.10 (≈ 0.0611 µM) | 0.81 (≈ 0.495 µM) | 0.30 (≈ 0.183 µM) | 0.10 (≈ 0.0611 µM) | 0.06 (≈ 0.0367 µM) | 0.4
3 | CC[C@H](C)[C@@H]1NC(=O)[C@H](Cc2ccc(O)cc2)NC(=O)[C@H]([C@@H](C)O)NC(=O)[C@@H]2CCCN2C(=O)[C@H]2CCCN2C(=O)[C@H](CCN)NC(=O)[C@H](C)NC(=O)[C@H](CCN)NC(=O)[C@H](CCN)NC(=O)[C@H](Cc2c[nH]c3ccccc23)NC(=O)[C@H](CCN)NC(=O)[C@H](CCN)NC(=O)[C@H](CCCCN)NC(=O)[C@H](CCN)NC1=O [Example 19] (cyclo(TYI[Dab]K[Dab][Dab]W[Dab][Dab]A[Dab][dP]P)) | 0.06 | 50 | 0.03 (≈ 0.0193 µM) | 0.10 (≈ 0.0642 µM) | 0.10 (≈ 0.0642 µM) | 0.05 (≈ 0.0321 µM) | 0.03 (≈ 0.0193 µM) | 0.2
4 | CC[C@H](C)[C@@H]1NC(=O)[C@H](Cc2c[nH]c3ccccc23)NC(=O)[C@H]([C@@H](C)O)NC(=O)[C@@H]2CCCN2C(=O)[C@H]2CCCN2C(=O)[C@H](CCN)NC(=O)[C@H](C)NC(=O)[C@H](CCN)NC(=O)[C@H](CCN)NC(=O)[C@H](Cc2ccc(O)cc2)NC(=O)[C@H](CCN)NC(=O)[C@H](CCN)NC(=O)[C@H](CCCCN)NC(=O)[C@H](CCN)NC1=O [Example 20] (cyclo(TWI[Dab]K[Dab][Dab]Y[Dab][Dab]A[Dab][dP]P)) | 0.48 | 50 | 0.21 (≈ 0.135 µM) | 0.31 (≈ 0.199 µM) | 1.25 (≈ 0.802 µM) | 0.40 (≈ 0.257 µM) | 0.21 (≈ 0.135 µM) | 0.2
